How the values were obtained:
Format in all cases: cell-based
Settings in all cases: in words
bacteria = test: Activity against bacteria
Protocol: (5) Method for determining bacteriostatic doses
A common gelose medium of the following composition is used.
The pH is adjusted at 7.2 and the medium is sterilized during 30 minutes at 120°C.
The same method as for the determination of fungistatic doses is used, except that the various dilutions of each compound are added to the gelose medium, the solvent concentration never exceeding 3%. Tubes containing […] of the compounds per ml are prepared.
Cultures of each strain in the liquid medium are prepared and, after 24 hours of incubation at 37°C, dilutions of these cultures in ordinary broth are prepared as follows:
By means of these dilutions, scratches of a length of 4 to 5 cm are made on the previously dried surface of the gelose medium to which various amounts of the compound to be tested have been added.

fungi = test: Activity against fungi
Protocol: (4) Method for determining fungistatic doses:
A liquide Sabouraud medium having the following composition is used:
If necessary, the pH is adjusted at 6.4 and the medium is sterilized.
The compounds are dissolved in dimethylformamide to which polyethylene glycol is sometimes added. From the mother-liquor, successive diluted solutions are prepared in the liquid Sabouraud medium, so as to obtain concentrations of 1, 3, 10, 30 100 and […] per ml. For the first dilution, one should not add more than 10% of the mother-liquor to the Sabouraud medium. Subsequently 9 ml per tube of the various solutions in the liquid Sabouraud medium are distributed.
Reference tubes corresponding to the highest solvent concentrations are also prepared.
Cultures of the various dermatophyte strains on Sabouraud gelose medium are prepared. From 1 to 2 months old cultures, homogeneous suspensions of said cultures in the liquid Sabouraud medium are prepared, the obtained suspensions being stirred in the presence of glass pearls having a light transmission of about 40%.
One drop of said suspension is introduced in the tubes containing the various concentrations of the compound to be tested.
at 25°C ± 2°C in the dark
10 days of incubation for dermatophytes.

Entomoeba dysenteriae = test: Test for amoebicidal activity
Description: (§1) Biological tests have been performed with a great number of compounds of formula (I) using the following techniques: (1) Test for amoebicidal activity described by R. CAVIER, Ann. pharm. franc., 1960, 18, pages 583-589 and by R. CAVIER, and J. CENAC, Bull. Soc. Path. exot. 1972, 65, pages 399-404. (2) Test for trichomonacidal activity described by R. CAVIER and P. BUOT, Ann. pharm. franc., 1964, 22, pages 211-216 and by R. CAVIER and J. CENAC, Semaine des Hopitaux, 1972, 48, pages 391-394). (3) Tests for anthelminthics described for nematodes (such as Syphacia obvelata) by R. CAVIER, Bull. Soc. Path. exot., 1962, 55, pages 412-417 and, for cestodes (such as Hymenolepis nana), by R. CAVIER, Ann. pharm. franc., 1956, 14, pages 545-552 and by R. CAVIER and M. J. NOTTEGHEM, Ann. pharm. franc. 1968, 28, pages 603-606.

Trichomonas vaginalis = test: Test for trichomonacidal activity
Description: as §1

O=C(COc1ccccc1)Nc1ncc([N+](=O)[O-])s1 [2-phenoxyacetamido-5-nitro-thiazole]
no activity: activity against bacteria (bacteria) | activity against fungi (fungi) | activity against Entomoeba dysenteriae (Entomoeba dysenteriae) | activity against Trichomonas vaginalis (Trichomonas vaginalis)

From US3957812A, “Derivatives of 2-phenoxyacetamido-5-nitro-thiazole” (priority 1973, dated 1976)
